Measurements as given in PubChem BioAssay (NCI).
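These data come from cells grown in 96-well plates and exposed to compound for 48 hours at five concentrations. The concentration for 50% growth inhibition is given as GI50. TGI: concentration producing complete growth inhibition.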

Assays:
Experiment in all cases: NCI tumour cell line growth inhibition, 48 h
[1] = test system: HL-60(TB) leukemia
[2] = test system: CCRF-CEM leukemia
[3] = test system: SF-539 CNS
[4] = test system: K-562 leukemia
[5] = test system: HOP-92 NSCLC
[6] = test system: SN12C renal
[7] = test system: SF-295 CNS
[8] = test system: A549 NSCLC
[9] = test system: SF-268 CNS
[10] = test system: BT-549 breast

In the case of `COc1ccc2cn3c4ccc(O)cc4[nH]c(=O)c3c2c1`, the GI50 [1] is reported as 111 nM, the TGI [1] is reported as 13 µM and the GI50 [2] is reported as 84.5 nM. For the same molecule, the TGI [2] was 12.2 µM, the GI50 [3] was 104 nM and the TGI [3] was 12.5 µM. It also gave a GI50 [4] of 51.6 nM, a TGI [4] of 4.48 µM and a GI50 [5] of 11600 nM. The TGI [5] was 25.8 µM, the GI50 [6] was 267 nM and the TGI [6] was 16.2 µM. It also gave a GI50 [7] of 129 nM, a TGI [7] of 12.9 µM and a GI50 [8] of 231 nM. The TGI [8] was 18.1 µM, the GI50 [9] was 217 nM and the TGI [9] was 17.5 µM. For the same molecule, the GI50 [10] was 3340 nM and the TGI [10] was 18.1 µM.
Work on `CC(NNC(=S)N1CCN(c2ccccn2)CC1)c1cccc[n+]1[O-]` (centres undefined) yielded a TGI [1] of 16.7 µM, a TGI [2] of 20.5 µM and a TGI [3] of 84.2 µM. The TGI [5] was > 100 µM, the TGI [6] was > 100 µM and the TGI [7] was > 100 µM. The TGI [8] was > 100 µM, the TGI [9] was > 100 µM and the TGI [10] was > 100 µM.
`COc1ccc2c(ccc3oc([N+](=O)[O-])cc32)c1` was tested, and the GI50 [1] was 51.4 nM, the TGI [1] was 0.487 µM and the GI50 [2] was 90 nM. For the same molecule, the TGI [2] was > 40.7 µM, the GI50 [3] was 225 nM and the TGI [3] was 0.595 µM. For the same molecule, the GI50 [4] was 64.7 nM, the TGI [4] was 6.14 µM and the GI50 [5] was 129 nM. The TGI [5] was 0.407 µM, the GI50 [6] was 274 nM and the TGI [6] was 7.03 µM. It also gave a GI50 [7] of 302 nM, a TGI [7] of 1.9 µM and a GI50 [8] of 274 nM. It also gave a TGI [8] of 1.04 µM, a GI50 [9] of 176 nM and a TGI [9] of 1.87 µM. The GI50 [10] was 187 nM and the TGI [10] was 0.521 µM.
`Cc1nc2sc(C(=O)Nc3cccc(Cl)c3C)c(N)c2cc1C(O)c1ccccc1` (centres undefined) showed a GI50 [1] of 28.9 nM, a TGI [1] of 0.133 µM and a GI50 [2] of 39.2 nM. For the same molecule, the TGI [2] was > 100 µM, the GI50 [3] was 25.3 nM and the TGI [3] was 0.0805 µM. The GI50 [4] was 30.2 nM, the TGI [4] was > 48.6 µM and the GI50 [5] was 2310 nM. For the same molecule, the TGI [5] was 14.2 µM, the GI50 [6] was 67 nM and the TGI [6] was 6.73 µM. For the same molecule, the GI50 [7] was 33.3 nM, the TGI [7] was 5.08 µM and the GI50 [8] was 61.4 nM. For the same molecule, the TGI [8] was > 50.1 µM, the GI50 [9] was 318 nM and the TGI [9] was 11.7 µM. The GI50 [10] was 124 nM and the TGI [10] was 3 µM.
With `CCCCc1n(Cc2ccc3ccccc3n2)cc[n+]1Cc1ccc2ccccc2c1` the GI50 [1] was 251 nM, the TGI [1] was 0.755 µM and the GI50 [2] was 1040 nM. It also gave a TGI [2] of 4.61 µM, a GI50 [3] of 916 nM and a TGI [3] of 3.05 µM. For the same molecule, the GI50 [4] was 359 nM, the TGI [4] was 2.36 µM and the GI50 [5] was 220 nM. For the same molecule, the TGI [5] was 1.11 µM, the GI50 [6] was 685 nM and the TGI [6] was 2.21 µM. For the same molecule, the GI50 [7] was 1370 nM, the TGI [7] was 4.4 µM and the GI50 [8] was 1690 nM. For the same molecule, the TGI [8] was 11 µM, the GI50 [9] was 984 nM and the TGI [9] was 2.92 µM. For the same molecule, the GI50 [10] was 648 nM and the TGI [10] was 1.74 µM.
`COc1ccc(/C=N/C2=NNC(C)(c3ccccc3O)N2C(Cc2c[nH]c3ccccc23)C(=O)O)cc1` (centres undefined) was tested, and the GI50 [1] was 2280 nM, the TGI [1] was 8.9 µM and the GI50 [2] was 3040 nM. It also gave a TGI [2] of 40.4 µM, a GI50 [3] of 2750 nM and a TGI [3] of 10.3 µM. The GI50 [4] was 2380 nM, the TGI [4] was 11.6 µM and the GI50 [5] was 1310 nM. For the same molecule, the TGI [5] was 5.17 µM, the GI50 [6] was 3110 nM and the TGI [6] was 11.3 µM. The GI50 [7] was 2120 nM, the TGI [7] was 7.35 µM and the GI50 [8] was 4440 nM. It also gave a TGI [8] of 30.5 µM, a GI50 [9] of 3110 nM and a TGI [9] of 13.8 µM. It also gave a GI50 [10] of 2240 nM and a TGI [10] of 7.62 µM.
